BigSolDB 2.1

COc1cc2c(cc1OC)-c1cc3ccc(OC)c(OC)c3c[n+]1CC2.[Cl-]
solubility (mole fraction)
Conditions | 283.15 K | 288.15 K | 293.15 K | 298.15 K | 303.15 K | 308.15 K | 313.15 K | 318.15 K | 323.15 K | 328.15 K
in ethanol | 0.00254 | 0.00299 | 0.00366 | 0.0045 | 0.00543 | 0.00651 | 0.00779 | 0.00914 | 0.0108 | 0.0127
in ethylene glycol | 0.00173 | 0.00202 | 0.00242 | 0.003 | 0.00362 | 0.00441 | 0.00529 | 0.00631 | 0.00745 | 0.00882
in isopropanol | 0.000177 | 0.000218 | 0.00028 | 0.000374 | 0.000479 | 0.000603 | 0.000754 | 0.000933 | 0.00115 | 0.00141
in propylene glycol | 6.32e-06 | 9.38e-06 | 1.36e-05 | 2.11e-05 | 3.12e-05 | 4.53e-05 | 6.48e-05 | 9.27e-05 | 0.00013 | 0.00018
in water | 0.000565 | 0.000693 | 0.000877 | 0.0011 | 0.00136 | 0.00165 | 0.002 | 0.0024 | 0.00287 | 0.00341
